According to patent US20240216352A1 (priority 2022, published 2024):

Tested on: healthy participants
Assay: Phase 1 Part A single ascending dose (SAD) and FE/pH cohort: safety, blood pressure
Assay type: in vivo, human
Details: for Mean SBP: in mmHg (unit assumed); for Maximum of mean (±SD) reduction in DBP from baseline / Maximum of mean (±SD) reduction in SBP from baseline / Time of maximum mean DBP reduction / Time of maximum mean SBP reduction: within 12 h post dose
Protocol: The study was performed in 3 parts in 112 healthy male and female participants, including 24 Japanese participants. Female participants were to be not of childbearing potential. The present study was designed to evaluate the safety and tolerability, PK, and exploratory PD of an oral suspension of Compound A. Parts A and B (Cohort B1 only) enrolled healthy participants and was conducted at a site in The Netherlands and Part B (Cohort B2 to B5) enrolled healthy non-Japanese participants and was conducted at a site in the United Kingdom (UK). Part C enrolled healthy Japanese participants and was conducted at the same site in the UK.
Part A was an SAD study in a planned number of 6 sequential dose escalation cohorts (3, 10, 30, 100, 150, or 250 mg) of 8 healthy participants (6 active+2 placebo) each, under fasted conditions. Eligible participants in Part A (excluding those in Cohort A7 [food effect (FE)/pH cohort]) received a single administration of study drug (Compound A or placebo) under fasted conditions. In Cohort A1 to Cohort A6, sentinel dosing was employed (1 active+1 placebo, followed after 48 hours by the remaining participants of the cohort [5 active+1 placebo]). […] In addition to the 6 ascending dose cohorts, a cohort of 6 healthy participants (Cohort A7; 6 active, 100 mg Compound A) was included to assess the effect of food and pH on the bioavailability of Compound A in a 3-period, open-label, fixed-sequence, crossover design (FE/pH cohort).
Physical examinations, vital sign measurements (including orthostasis testing in Cohort A6, Cohort B3 to B5, and C1 to C3 at selected time points), 12-lead electrocardiogram (ECG), and clinical laboratory evaluations were performed at selected times throughout the study. In addition, Holter monitoring was performed for the first 24 hours post dose on Day 1 in Part A (not in FE/pH cohort), and also for the first 24 hours post dose on Day 1 and Day 14 in Parts B and C. Participants were closely monitored for adverse events (AEs). Blood samples were collected for up to 14 days (follow-up visit) after (last) study drug administration for PK analysis. In addition, blood and urine were collected for exploratory biomarker assessments and for biobanking of samples for potential analyses. Urine was collected for potential PK analysis for up to 96 hours after a single dose of Compound A or placebo was administered in the SAD part, and for up to 24 hours after the first (morning) dose of study drug on Day 1 and for up to 24 hours after the last (morning) dose of study drug on Day 14 in the MAD parts.

[1] = 100 mg Fasted + Famotidine, D 1 2 h
[2] = 100 mg Fasted + Famotidine, D 1 4 h
[3] = 100 mg Fasted + Famotidine, D 1 8 h
[4] = 100 mg Fasted + Famotidine, D 2 24 h
[5] = 100 mg fasted + famotidine (A7)

For CCCN(C)C(=O)OCc1c(-c2ccc(O[C@H]3CCC[C@H](C(=O)O)C3)c(C)n2)nnn1C [Compound A, (1S,3S)-3-((2-methyl-6-(1-methyl-5-(((methyl(propyl)carbamoyl)-oxy)methyl)-1H-1,2,3-triazol-4-yl)pyridin-3-yl)oxy)cyclohexane-1-carboxylic acid], the Mean DBP [1] was 67.2 mmHg, the “Mean SBP” value [1] was 111.3 and the Mean DBP [2] was 65.3 mmHg. For the same molecule, the “Mean SBP” value [2] was 106.5, the Mean DBP [3] was 63.2 mmHg and the “Mean SBP” value [3] was 105.0. The Mean DBP [4] was 71.7 mmHg, the “Mean SBP” value [4] was 118.7 and the Mean DBP (100 mg Fasted, D 1 2 h) was 67.2 mmHg. The “Mean SBP” value (100 mg Fasted, D 1 2 h) was 107.5, the Mean DBP (100 mg Fasted, D 1 4 h) was 64.2 mmHg and the “Mean SBP” value (100 mg Fasted, D 1 4 h) was 103.8. The Mean DBP (100 mg Fasted, D 1 8 h) was 63 mmHg, the “Mean SBP” value (100 mg Fasted, D 1 8 h) was 98.0 and the Mean DBP (100 mg Fasted, D 2 24 h) was 69.3 mmHg. The “Mean SBP” value (100 mg Fasted, D 2 24 h) was 115.2, the Mean DBP (100 mg Fed, D 1 2 h) was 57.2 mmHg and the “Mean SBP” value (100 mg Fed, D 1 2 h) was 100.5. The Mean DBP (100 mg Fed, D 1 4 h) was 58.2 mmHg, the “Mean SBP” value (100 mg Fed, D 1 4 h) was 104.2 and the Mean DBP (100 mg Fed, D 1 8 h) was 58.8 mmHg. The “Mean SBP” value (100 mg Fed, D 1 8 h) was 100.3, the Mean DBP (100 mg Fed, D 2 24 h) was 69.3 mmHg and the “Mean SBP” value (100 mg Fed, D 2 24 h) was 112.8. The “Maximum of mean (±SD) reduction in DBP from baseline” value (100 mg fasted (A7)) was 12.5 ± 7.06 mmHg, the “Maximum of mean (±SD) reduction in SBP from baseline” value (100 mg fasted (A7)) was 25.8 ± 9.54 mmHg and the “Time of maximum mean DBP reduction” value (100 mg fasted (A7)) was 5 h. The “Time of maximum mean SBP reduction” value (100 mg fasted (A7)) was 8 h, the “Maximum of mean (±SD) reduction in DBP from baseline” value [5] was 11.8 ± 8.40 mmHg and the “Maximum of mean (±SD) reduction in SBP from baseline” value [5] was 19.3 ± 17.41 mmHg. For the same molecule, the “Time of maximum mean DBP reduction” value [5] was 6 h, the “Time of maximum mean SBP reduction” value [5] was 6 h and the “Maximum of mean (±SD) reduction in DBP from baseline” value (100 mg fed (A7)) was 12.7 ± 4.18 mmHg. The “Maximum of mean (±SD) reduction in SBP from baseline” value (100 mg fed (A7)) was 18.5 ± 12.94 mmHg, the “Time of maximum mean DBP reduction” value (100 mg fed (A7)) was 5 h and the “Time of maximum mean SBP reduction” value (100 mg fed (A7)) was 6 h. The Dose-limiting events (Cohort A6, 250 mg single dose, 2 sentinel participants dosed) was “dose-limiting events observed in a sentinel participant”, the “Maximum of mean (±SD) reduction in SBP from baseline” value (SAD 3 mg (A1)) was 5.2 ± 3.43 mmHg and the “Time of maximum mean SBP reduction” value (SAD 3 mg (A1)) was 2 h. The Mean DBP (SAD 3 mg, D 1 2 h) was 68.3 mmHg, the “Mean SBP” value (SAD 3 mg, D 1 2 h) was 119.5 and the Mean DBP (SAD 3 mg, D 1 4 h) was 69.5 mmHg. The “Mean SBP” value (SAD 3 mg, D 1 4 h) was 120.3, the Mean DBP (SAD 3 mg, D 1 8 h) was 68 mmHg and the “Mean SBP” value (SAD 3 mg, D 1 8 h) was 124.5. For the same molecule, the Mean DBP (SAD 3 mg, D 2 24 h) was 68.7 mmHg, the “Mean SBP” value (SAD 3 mg, D 2 24 h) was 118.8 and the “Maximum of mean (±SD) reduction in DBP from baseline” value (SAD 10 mg (A2)) was 8.8 ± 9.91 mmHg. For the same molecule, the “Maximum of mean (±SD) reduction in SBP from baseline” value (SAD 10 mg (A2)) was 9.5 ± 16.13 mmHg, the “Time of maximum mean DBP reduction” value (SAD 10 mg (A2)) was 6 h and the “Time of maximum mean SBP reduction” value (SAD 10 mg (A2)) was 8 h. The Mean DBP (SAD 10 mg, D 1 2 h) was 67.7 mmHg, the “Mean SBP” value (SAD 10 mg, D 1 2 h) was 112.2 and the Mean DBP (SAD 10 mg, D 1 4 h) was 68.7 mmHg. For the same molecule, the “Mean SBP” value (SAD 10 mg, D 1 4 h) was 110.2, the Mean DBP (SAD 10 mg, D 1 8 h) was 63 mmHg and the “Mean SBP” value (SAD 10 mg, D 1 8 h) was 109.5. The Mean DBP (SAD 10 mg, D 2 24 h) was 71.7 mmHg, the “Mean SBP” value (SAD 10 mg, D 2 24 h) was 118.5 and the “Maximum of mean (±SD) reduction in DBP from baseline” value (SAD 30 mg (A3)) was 6.8 ± 1.72 mmHg. For the same molecule, the “Maximum of mean (±SD) reduction in SBP from baseline” value (SAD 30 mg (A3)) was 11.7 ± 7.61 mmHg, the “Time of maximum mean DBP reduction” value (SAD 30 mg (A3)) was 5 h and the “Time of maximum mean SBP reduction” value (SAD 30 mg (A3)) was 4 h. For the same molecule, the Mean DBP (SAD 30 mg, D 1 2 h) was 66.2 mmHg, the “Mean SBP” value (SAD 30 mg, D 1 2 h) was 107.5 and the Mean DBP (SAD 30 mg, D 1 4 h) was 65.2 mmHg. For the same molecule, the “Mean SBP” value (SAD 30 mg, D 1 4 h) was 106.0, the Mean DBP (SAD 30 mg, D 1 8 h) was 65.2 mmHg and the “Mean SBP” value (SAD 30 mg, D 1 8 h) was 113.8. For the same molecule, the Mean DBP (SAD 30 mg, D 2 24 h) was 71 mmHg, the “Mean SBP” value (SAD 30 mg, D 2 24 h) was 120.2 and the “Maximum of mean (±SD) reduction in DBP from baseline” value (SAD 100 mg (A4)) was 9.7 ± 8.64 mmHg. For the same molecule, the “Maximum of mean (±SD) reduction in SBP from baseline” value (SAD 100 mg (A4)) was 15.5 ± 11.59 mmHg, the “Time of maximum mean DBP reduction” value (SAD 100 mg (A4)) was 5 h and the “Time of maximum mean SBP reduction” value (SAD 100 mg (A4)) was 2 h. The Mean DBP (SAD 100 mg, D 1 2 h) was 59 mmHg, the “Mean SBP” value (SAD 100 mg, D 1 2 h) was 101.0 and the Mean DBP (SAD 100 mg, D 1 4 h) was 58.7 mmHg. For the same molecule, the “Mean SBP” value (SAD 100 mg, D 1 4 h) was 101.3, the Mean DBP (SAD 100 mg, D 1 8 h) was 56.3 mmHg and the “Mean SBP” value (SAD 100 mg, D 1 8 h) was 105.0. The Mean DBP (SAD 100 mg, D 2 24 h) was 66 mmHg, the “Mean SBP” value (SAD 100 mg, D 2 24 h) was 114.2 and the “Maximum of mean (±SD) reduction in DBP from baseline” value (SAD 150 mg (A5)) was 12.7 ± 5.61 mmHg. The “Maximum of mean (±SD) reduction in SBP from baseline” value (SAD 150 mg (A5)) was 16.5 ± 8.41 mmHg, the “Time of maximum mean DBP reduction” value (SAD 150 mg (A5)) was 6 h and the “Time of maximum mean SBP reduction” value (SAD 150 mg (A5)) was 6 h. For the same molecule, the Mean DBP (SAD 150 mg, D 1 2 h) was 58.2 mmHg, the “Mean SBP” value (SAD 150 mg, D 1 2 h) was 105.0 and the Mean DBP (SAD 150 mg, D 1 4 h) was 56 mmHg. The “Mean SBP” value (SAD 150 mg, D 1 4 h) was 101.5, the Mean DBP (SAD 150 mg, D 1 8 h) was 57.8 mmHg and the “Mean SBP” value (SAD 150 mg, D 1 8 h) was 107.2. The Mean DBP (SAD 150 mg, D 2 24 h) was 66.2 mmHg, the “Mean SBP” value (SAD 150 mg, D 2 24 h) was 114.7 and the “Effect on SBP, DBP and heart rate” value (SAD cohorts) was “decreased SBP and DBP dose dependently, reversibly, and mostly asymptomatically with minimal effect on heart rate”. For the same molecule, the Safety and tolerability (single and multiple dose oral administration to healthy participants) was “generally safe and well tolerated”.
